This note sets out measurements from patent US9188580B2, “Gene reporter assay, kit, and cells for determining the presence and/or the level of a molecule that activates signal transduction activity of a cell surface protein” (LE CENTRE NATIONALE DE LA RECHERCHE SCIENTIFIQUE, priority 2002, dated 2015).

Experiment [1] has as its system PIL5 cells. Briefly: Luciferase gene reporter assay for Type I interferon: IFN sensitivity of PIL5 cells treated with anti-mitotic agent, frozen and thawed. It is filed as cell-based, human. On the procedure: • 1. Remove protective cover from the sample preparation micro-plate (Plate A). • 2. Add 100 μl of the diluent (RPMI 1640 medium without serum) to wells A1 through A6 and B1 through B6 of the sample preparation plate (Plate A). • 3. Add 100 μl of the interferon (IFN) reference preparation to wells A1 and B1 of Plate A containing 100 μl of diluent. • 4. Carry out serial two-fold dilutions of the IFN reference preparation in Plate A from wells A1 and B1 through wells A6 and B6 using a multi-channel micro-pipette. Sample preparation • 1. Add 100 μl of the diluent to the wells of the sample preparation plate (Plate A) where required. • 2. Dilute samples to be tested if the estimated IFN titer of the samples is greater than 100 IU/ml. • 3. Dilute samples appropriately in the sample preparation micro-plate (Plate A) Assay Procedure • 1. Rapidly thaw the 96-well PIL5 assay micro-plate (Plate B) on a flat surface with the cover uppermost. A water-bath set at 37° C. can be used for convenience. • 2. Dry protective cover with a paper hand towel, taking care to maintain the label uppermost. • 3. Carefully remove protective cover from the PIL5 assay micro-plate (Plate B) while maintaining the cover uppermost. • 4. Add 75 μl of each of the serial two-fold dilutions of the reference preparation to wells A1 and B1 through wells A6 and B6 of the PIL5 assay micro-plate (Plate B) using a multi-channel micro-pipette. • 5. Add 75 μl of each undiluted or appropriately diluted sample to the PIL assay micro-plate […]. • 6. Incubate the PIL5 assay micro-plate (Plate B) overnight at 37° C. in an atmosphere of 5% CO2 in air. A CO2 incubator can be used for convenience. • 7. […] Determine the luminescence of the samples using a micro-plate luminometer (LUMICOUNT, Packard). […] Plot standard curve from the mean of the luminescence readings for each dilution of the IFN reference preparation calibrated against the NIH international reference standard for HuIFN-α (G-023-901-527) using Microsoft EXCEL. • 2. […]
(A reporter such as luciferase makes a cellular process visible.)

Experiment [2] concerns PIL5 cells. Briefly: Prevention of cell replication of PIL5 cells by anti-mitotic and pro-apoptotic agent. It is filed as cell-based, human. The note with it: at the doses tested. On the procedure: Studies on the effects of a variety of parameters, i.e., concentration of vinblastine, time of treatment with vinblastine, fetal bovine serum (FBS) concentration, glycerol concentration in the presence or absence of DMSO, SMSO concentration, cell density, on interferon sensitivity of frozen cells were conducted to determine optimal conditions. It may not be apparent from the results shown in FIG. 12 why vinblastine instead of 5-FU was chosen as the more preferred anti-mitotic and pro-apoptotic agent for treatment of PIL5 cells prior to freezing.

Structures are written as SMILES.

Consider `C[S+](C)[O-]` [DMSO, dimethyl sulfoxide], for which the “protection of cells frozen at −20° C. and effect on sensitivity to IFN” value in experiment [1] (no special freezing or thawing techniques, FIG. 11) is recorded as “without adversely affecting their sensitivity to IFN”.

Consider `O=c1[nH]cc(F)c(=O)[nH]1` [5-FU, 5-fluorouracil], for which, in experiment [2], the preventing cell replication entry is given as “not found to be sufficiently effective”. Moreover, the “maintaining interferon sensitivity of frozen PIL5 cells” value in experiment [1] (treatment prior to freezing, compared with vinblastine, FIG. 12) is reported as “superior to vinblastine”.

Regarding `CC[C@]1(O)C[C@@H]2CN(CCc3c([nH]c4ccccc34)[C@@](C(=O)OC)(c3cc4c(cc3OC)N(C)[C@H]3[C@@](O)(C(=O)OC)[C@H](OC(C)=O)[C@]5(CC)C=CCN6CC[C@]43[C@@H]65)C2)C1` [vinblastine], the “IFN sensitivity of PIL5 cells after treatment and freezing” value in experiment [1] (100 μM vinblastine, 1.0 hour at 37° C., one month at −20° C., FIG. 11) is recorded as “retain full IFN sensitivity”.
